ChEMBL document CHEMBL4033740, “Novel phenanthrene and isocoumarin from the rhizomes of Dioscorea nipponica Makino subsp. rosthornii (Prain et Burkill) C. T. Ting (Dioscoreaceae)” (Bioorg Med Chem Lett, 2017)

Tested on: NCI-H460
Experiment: Cytotoxicity against human NCI-H460 cells incubated for 24 hrs by MTT assay
Assay type: functional, cell-based
Conditions: NCI-H460, 24 h

## CC(=O)O[C@H]1CC[C@@]2(C)C(=CC[C@H]3[C@@H]4C[C@@H]5O[C@]6(CC[C@@H](C)CO6)[C@@H](C)[C@@H]5[C@@]4(C)CC[C@@H]32)C1
  IC50: > 50 µM

## O=c1oc(-c2ccccc2O)cc2cc3c(c(O)c12)OCO3
  IC50: > 50 µM

## COc1cc2ccc3c(-c4c(OC)cc(O)c5c4ccc4cc(OC)c(O)cc45)c(OC)cc(O)c3c2cc1O
  IC50: 23.1 µM

## O=C(C[C@@H]1C[C@@H](O)C[C@H](c2ccccc2)O1)c1ccccc1
  IC50: > 50 µM

## O=C1O[C@H](c2ccccc2)Cc2cc(O)cc(O)c21
  IC50: > 50 µM

## C[C@H]1[C@H]2[C@H](C[C@H]3[C@@H]4CC=C5C[C@@H](O)CC[C@]5(C)[C@H]4CC[C@]23C)O[C@]12CC[C@@H](CO)CO2
  IC50: > 50 µM

## CC(C)C[C@H]1NC(=O)[C@@H]2CCCN2C1=O
  IC50: > 50 µM

## O=C(/C=C/C=C/c1ccc(O)cc1)CCc1ccc(O)cc1
  IC50: > 50 µM

## CCCCC(CC)COC(=O)c1ccccc1C(=O)OCC(CC)CCCC (centres undefined) [BIS(2-ETHYLHEXYL) PHTHALATE]
  IC50: > 50 µM

## C[C@@H]1CC[C@@]2(OC1)O[C@H]1C[C@H]3[C@@H]4CC=C5C[C@@H](O[C@@H]6O[C@H](CO)[C@@H](O[C@@H]7O[C@H](CO)[C@@H](O)[C@H](O)[C@H]7O)[C@H](O)[C@H]6O[C@@H]6O[C@@H](C)[C@H](O)[C@@H](O)[C@H]6O)CC[C@]5(C)[C@H]4CC[C@]3(C)[C@H]1[C@@H]2C [DELTONIN]
  IC50: 5.81 µM

## C[C@@H]1CC[C@@]2(OC1)O[C@H]1C[C@H]3[C@@H]4CC=C5C[C@@H](O[C@@H]6O[C@H](CO)[C@@H](O[C@@H]7O[C@@H](C)[C@H](O)[C@@H](O)[C@H]7O)[C@H](O)[C@H]6O[C@@H]6O[C@@H](C)[C@H](O)[C@@H](O)[C@H]6O)CC[C@]5(C)[C@H]4CC[C@]3(C)[C@H]1[C@@H]2C [DIOSCIN]
  IC50: 4.56 µM

## C[C@@H]1CC[C@@]2(OC1)O[C@H]1C[C@H]3[C@@H]4CC=C5C[C@@H](O)CC[C@]5(C)[C@H]4CC[C@]3(C)[C@H]1[C@@H]2C [DISOGENIN]
  IC50: > 50 µM

## C[C@@H]1CC[C@@]2(OC1)O[C@H]1C[C@H]3[C@@H]4CC=C5C[C@@H](O[C@@H]6O[C@H](CO)[C@@H](O)[C@H](O)[C@H]6O[C@@H]6O[C@@H](C)[C@H](O)[C@@H](O)[C@H]6O)CC[C@]5(C)[C@H]4CC[C@]3(C)[C@H]1[C@@H]2C [OPHIOPOGONIN C]
  IC50: 5.04 µM

## CC[C@H](CC[C@@H](C)[C@H]1CC[C@H]2[C@@H]3CC=C4C[C@@H](O[C@@H]5O[C@H](CO)[C@@H](O)[C@H](O)[C@H]5O)CC[C@]4(C)[C@H]3CC[C@]12C)C(C)C [SITOGLUSIDE]
  IC50: > 50 µM
